The text below walks through data of paper PMC9852833, “Functional evaluation of cyclosporine metabolism by CYP3A4 variants and potential drug interactions” (Frontiers in Pharmacology, 2023).

For data set [1], the system named is metabolism of CsA in rat liver microsomes (RLMs). The experiment in a line: Inhibition of CsA metabolism in rat liver microsomes (RLMs). The conditions noted are these: for Inhibitory rate on the metabolism of CsA: screen of 132 drugs, RLMs […], Tris-HCl, NADPH 1 mM, AM1 by UPLC-MS/MS; for Inhibitory effect on the metabolism of CsA (in words): RLMs, comparison of five antihypertension drugs (Figure 2C).
Experimental: (§1) The concentrations of CsA, its main metabolite AM1, and diazepam (IS) were detected by UPLC–MS/MS equipped with a triple quadrupole and electrospray ionization (ESI) source. […] Briefly, the analytes were separated on a UPLC BEH C18 column (2.1 mm × 50 mm, 1.7 μm particle size). […] Solvent A (0.1% formic acid) and solvent B (acetonitrile) were applied as the mobile phase, with a gradient elution at a flow rate of 0.4 ml/min and an injection volume of 4 μl.
(§2) Reduced nicotinamide adenine dinucleotide phosphate (NADPH) (1 mmol/L) was added into the mixture after preincubation at 37°C for 5 min to initiate the reaction. The mixture was incubated for another 40 min, then cooled at −80°C to suspend the reaction. Then, 400 μl of acetonitrile and 20 μl of diazepam (200 ng/ml) were added to the frozen mixture. The mixtures were vortexed for 2 min and centrifuged at 13,000 rpm for 10 min. Finally, 4 μl of the mixture was injected for UPLC-MS/MS analysis.
(§3) A 200 μl system was incubated with either RLMs or HLMs (at a concentration of 0.15 mg/ml) containing drugs, CsA, RLMs or HLMs (all at a concentration of 0.15 mg/ml), Tris-HCl buffer, and 10 μl of NADPH (1 mM). […] The rest of the operation was the same as already described.

The nature of data set [2]: Pharmacokinetics of CsA and AM1 in rats with or without nimodipine or nisoldipine. The note with it: male SD rats, plasma, UPLC-MS/MS, mean ± SD n = 6. In kind it is in vivo, Sprague–Dawley rats. Here is the method:
Sprague–Dawley male rats weighing 200–250 g were purchased from Shanghai Laboratory Animal Center (SLAC). After 2 weeks of laboratory adaptation, the rats were randomly divided into three groups with six rats in each group. […] All drugs were orally administered. […] The collected blood samples were centrifuged to obtain the plasma. Then, 150 μl of acetonitrile and 20 μl of diazepam (IS; 100 ng/ml) were added to 50 μl of plasma, mixed and vortexed for 2 min, centrifuged for 10 min, and 4 μl of the supernatant was used for UPLC-MS/MS injection analysis.
The pharmacokinetic parameters were evaluated by DAS 3.0.

Data set [3] relates to metabolism of CsA in human liver microsomes (HLMs); CYP3A4. The conditions noted are these: comparison of five antihypertension drugs (Figure 2D).
Experimental: as §1, §2, §3
A short description of data set [4]: Inhibition of CsA metabolism in rat liver microsomes (RLMs). The note with it: SD. (In general: Microsomes from liver hold many membrane-bound enzymes, among them those of drug oxidation.)
Experimental: as §1, §2, §3
[5] abbreviates: metabolite after CsA 40 mg/kg oral + nimodipine 24 mg/kg oral.
[6] abbreviates: metabolite after CsA 40 mg/kg oral + nisoldipine 2 mg/kg oral.
The mark [7] stands for this setting: metabolite after CsA 40 mg/kg oral alone.

SMILES strings stand for the structures.

Turning to `C[C@@H](c1ncncc1F)[C@](O)(Cn1cncn1)c1ccc(F)cc1F` [voriconazole, Voriconazole], the “Inhibitory rate on the metabolism of CsA” value in data set [1] is recorded as “greater than 80%”.
With `CO[C@H]1C[C@@H]2CC[C@@H](C)[C@@](O)(O2)C(=O)C(=O)N2CCCC[C@H]2C(=O)O[C@H]([C@H](C)C[C@@H]2CC[C@@H](OCCO)[C@H](OC)C2)CC(=O)[C@H](C)/C=C(\C)[C@@H](O)[C@@H](OC)C(=O)[C@H](C)C[C@H](C)/C=C/C=C/C=C/1C` [everolimus, Everolimus], the “Inhibitory rate on the metabolism of CsA” value in data set [1] is “greater than 80%”.
For `C[C@@H](c1nc(-c2ccc(C#N)cc2)cs1)[C@](O)(Cn1cncn1)c1cc(F)ccc1F` [isavuconazole, Isavuconazole], the “Inhibitory rate on the metabolism of CsA” value in data set [1] was “greater than 80%”.
For `COCCOC(=O)C1=C(C)NC(C)=C(C(=O)OC(C)C)C1c1cccc([N+](=O)[O-])c1` (stereo not shown) [nimodipine, Nimodipine], in data set [1], the “Inhibitory effect on the metabolism of CsA (in words)” value (“Inhibitory effect on the metabolism” for short) is listed as “almost completely blocked the metabolism of CsA”.
As for `CCOC(=O)C1=C(C)NC(C)=C(C(=O)OC)C1c1cccc(Cl)c1Cl` (stereo not shown) [felodipine], the “Inhibitory effect on the metabolism” value in data set [1] is on record as “almost completely blocked the metabolism of CsA”.
Turning to `OCCOc1ccc(/C(=C(/CCCl)c2ccccc2)c2ccccc2)cc1` [ospemifene], the “Inhibitory rate on the metabolism of CsA” value in data set [1] was “greater than 80%”.
On to `CC[C@@H]1NC(=O)[C@H]([C@H](O)[C@H](C)C/C=C/CO)N(C)C(=O)[C@H](C(C)C)N(C)C(=O)[C@H](CC(C)C)N(C)C(=O)[C@H](CC(C)C)N(C)C(=O)[C@@H](C)NC(=O)[C@H](C)NC(=O)[C@H](CC(C)C)N(C)C(=O)[C@H](C(C)C)NC(=O)[C@H](CC(C)C)N(C)C(=O)CN(C)C1=O` [AM1, CsA M-17], for which, in data set [2] (setting [5]), the “AUC(0-t) of AM1” value is 3,291.60 ± 1,213.46 μg/L·h, the “AUC(0-∞) of AM1” value is 3,504.89 ± 1,223.40 μg/L·h, the “CLz/F of AM1” value is recorded as 12.42 ± 3.60 L/h/kg and the “Cmax of AM1” value was 0.19268 ± 0.06942 µg/mL. Further, in data set [2] (setting [5]), the “Tmax of AM1” value worked out at 7.00 ± 2.68 h, the “Vz/F of AM1” value came out at 198.16 ± 99.97 L/kg and the “t1/2z of AM1” value amounted to 10.83 ± 3.52 h. Further, in data set [2] (setting [6]), the “AUC(0-t) of AM1” value was 1,548.46 ± 482.43 μg/L·h, the “AUC(0-∞) of AM1” value is recorded as 2,128.73 ± 887.82 μg/L·h, the “CLz/F of AM1” value was 21.26 ± 7.31 L/h/kg and the “Cmax of AM1” value amounted to 0.11032 ± 0.01952 µg/mL. In data set [2] (setting [6]), the “Tmax of AM1” value is 6.17 ± 1.60 h, the “Vz/F of AM1” value is reported as 494.23 ± 201.15 L/kg and the “t1/2z of AM1” value was 19.58 ± 13.45 h. For the same compound, in data set [2] (setting [7]), the “AUC(0-t) of AM1” value is 2,275.37 ± 620.96 μg/L·h, the “AUC(0-∞) of AM1” value is recorded as 2,542.74 ± 779.21 μg/L·h, the “CLz/F of AM1” value is on record as 17.03 ± 5.31 L/h/kg and the “Cmax of AM1” value turned out to be 0.14121 ± 0.03064 µg/mL. Also, in data set [2] (setting [7]), the “Tmax of AM1” value is on record as 6.83 ± 1.33 h, the “Vz/F of AM1” value is on record as 264.78 ± 145.01 L/kg and the “t1/2z of AM1” value was determined as 12.10 ± 9.00 h.
Regarding `Cc1cccc(C)c1OCC(=O)N[C@@H](Cc1ccccc1)[C@@H](O)C[C@H](Cc1ccccc1)NC(=O)[C@H](C(C)C)N1CCCNC1=O` [lopinavir, Lopinavir], the “Inhibitory rate on the metabolism of CsA” value in data set [1] is “greater than 80%”.
In the case of `C=CC[C@@H]1/C=C(\C)C[C@H](C)C[C@H](OC)[C@H]2O[C@@](O)(C(=O)C(=O)N3CCCC[C@H]3C(=O)O[C@H](/C(C)=C/[C@@H]3CC[C@@H](O)[C@H](OC)C3)[C@H](C)[C@@H](O)CC1=O)[C@H](C)C[C@@H]2OC` [tacrolimus, Tacrolimus], in data set [1], the “Inhibitory rate on the metabolism of CsA” value is on record as “greater than 80%”.
As to `N#CC1(c2ccc(NC(=O)c3cccnc3NCc3ccncc3)cc2)CCCC1` [apatinib, Apatinib], the “Inhibitory rate on the metabolism of CsA” value in data set [1] is “greater than 80%”.
Take `COC(=O)C1=C(C)NC(C)=C(C(=O)OCC(C)C)C1c1ccccc1[N+](=O)[O-]` (stereo not shown) [nisoldipine, Nisoldipine]: in data set [3], the “Inhibitory effect on the metabolism” value is recorded as “almost completely blocked the metabolism of CsA”. Further, half-maximal inhibition in data set [4] (IC50) was put at 16.2 ± 0.78 µM. In data set [1], the “Inhibitory effect on the metabolism” value is “almost completely blocked the metabolism of CsA” and the “Inhibitory rate on the metabolism of CsA” value was “greater than 80%”.

A word on the IC50: it is the midpoint of a concentration-inhibition curve.
